Source: PubChem BioAssay (NCI)
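Results reflect a 48-hour exposure of cells in 96-well plates to compound at five concentrations. Definition used: TGI = concentration required for complete inhibition of growth.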

How the values were obtained:
Experiment in all cases: inhibition of tumour cell growth, NCI panel, 48 h
HOP-62 NSCLC = test system: HOP-62 NSCLC
A498 renal = test system: A498 renal
K-562 leukemia = test system: K-562 leukemia
HL-60(TB) leukemia = test system: HL-60(TB) leukemia
UACC-62 melanoma = test system: UACC-62 melanoma
SN12C renal = test system: SN12C renal
A549 NSCLC = test system: A549 NSCLC
UO-31 renal = test system: UO-31 renal
CCRF-CEM leukemia = test system: CCRF-CEM leukemia
KM12 colon = test system: KM12 colon
MALME-3M melanoma = test system: MALME-3M melanoma
IGROV1 ovarian = test system: IGROV1 ovarian
NCI-H460 lung = test system: NCI-H460 lung
SR leukemia = test system: SR leukemia
ACHN renal = test system: ACHN renal
SW-620 colon = test system: SW-620 colon
OVCAR-8 ovarian = test system: OVCAR-8 ovarian
HCT-15 colon = test system: HCT-15 colon
HCT-116 colon = test system: HCT-116 colon
TK-10 renal = test system: TK-10 renal
SNB-75 CNS = test system: SNB-75 CNS
LOX IMVI melanoma = test system: LOX IMVI melanoma
M14 melanoma = test system: M14 melanoma
COLO 205 colon = test system: COLO 205 colon
SK-MEL-5 melanoma = test system: SK-MEL-5 melanoma
DMS 273 small cell lung = test system: DMS 273 small cell lung
NCI-H522 lung = test system: NCI-H522 lung
LXFL 529 NSCLC = test system: LXFL 529 NSCLC
KM20L2 colon = test system: KM20L2 colon
CAKI-1 renal = test system: CAKI-1 renal
SF-295 CNS = test system: SF-295 CNS
UACC-257 melanoma = test system: UACC-257 melanoma
DMS 114 small cell lung = test system: DMS 114 small cell lung
MOLT-4 leukemia = test system: MOLT-4 leukemia
SF-268 CNS = test system: SF-268 CNS
SF-539 CNS = test system: SF-539 CNS
NCI-H226 lung = test system: NCI-H226 lung
RPMI-8226 leukemia = test system: RPMI-8226 leukemia
EKVX NSCLC = test system: EKVX NSCLC
XF 498 CNS = test system: XF 498 CNS
786-0 renal = test system: 786-0 renal
HCC-2998 colon = test system: HCC-2998 colon
SK-MEL-2 melanoma = test system: SK-MEL-2 melanoma
HT29 colon = test system: HT29 colon
RXF 393 renal = test system: RXF 393 renal
DLD-1 colon = test system: DLD-1 colon
NCI-H23 lung = test system: NCI-H23 lung
OVCAR-4 ovarian = test system: OVCAR-4 ovarian
HOP-92 NSCLC = test system: HOP-92 NSCLC
SK-OV-3 ovarian = test system: SK-OV-3 ovarian
SNB-78 CNS = test system: SNB-78 CNS
U251 CNS = test system: U251 CNS
M19-MEL melanoma = test system: M19-MEL melanoma
SNB-19 CNS = test system: SNB-19 CNS
SK-MEL-28 melanoma = test system: SK-MEL-28 melanoma
OVCAR-5 ovarian = test system: OVCAR-5 ovarian

Question: With C=C1CC(CC)(CCN2C(=O)c3ccccc3C2=O)OC1=O (centres undefined) as the compound, how does the TGI (HOP-62 NSCLC) read?
Answer: > 100 µM

Question: And the TGI (A498 renal)?
Answer: 36.8 µM

Question: What about the TGI (K-562 leukemia) of the same compound?
Answer: > 100 µM

Question: And the TGI (HL-60(TB) leukemia)?
Answer: > 100 µM

Question: What about the TGI (UACC-62 melanoma) of the same compound?
Answer: 26.3 µM

Question: And the TGI (SN12C renal)?
Answer: 45.5 µM

Question: And the TGI (A549 NSCLC)?
Answer: > 100 µM

Question: And the TGI (UO-31 renal)?
Answer: 36.2 µM

Question: And the TGI (CCRF-CEM leukemia)?
Answer: > 100 µM

Question: What about the TGI (KM12 colon) of the same compound?
Answer: 45.1 µM

Question: And the TGI (MALME-3M melanoma)?
Answer: 27.3 µM

Question: And the TGI (IGROV1 ovarian)?
Answer: > 100 µM

Question: What about the TGI (NCI-H460 lung) of the same compound?
Answer: > 100 µM

Question: And the TGI (SR leukemia)?
Answer: > 100 µM

Question: And the TGI (ACHN renal)?
Answer: 28.6 µM

Question: What about the TGI (SW-620 colon) of the same compound?
Answer: 22.9 µM

Question: And the TGI (OVCAR-8 ovarian)?
Answer: 36.2 µM

Question: What about the TGI (HCT-15 colon) of the same compound?
Answer: 31.6 µM

Question: And the TGI (HCT-116 colon)?
Answer: 25.4 µM

Question: What about the TGI (TK-10 renal) of the same compound?
Answer: 32.3 µM

Question: And the TGI (SNB-75 CNS)?
Answer: > 100 µM

Question: What about the TGI (LOX IMVI melanoma) of the same compound?
Answer: 29.6 µM

Question: What about the TGI (M14 melanoma) of the same compound?
Answer: 22.8 µM

Question: What about the TGI (COLO 205 colon) of the same compound?
Answer: 30.3 µM

Question: And the TGI (SK-MEL-5 melanoma)?
Answer: 26.1 µM

Question: What about the TGI (DMS 273 small cell lung) of the same compound?
Answer: 24.6 µM

Question: And the TGI (NCI-H522 lung)?
Answer: 11.8 µM

Question: What about the TGI (LXFL 529 NSCLC) of the same compound?
Answer: 27.1 µM

Question: What about the TGI (KM20L2 colon) of the same compound?
Answer: 46.1 µM

Question: What about the TGI (CAKI-1 renal) of the same compound?
Answer: 7.59 µM

Question: And the TGI (SF-295 CNS)?
Answer: > 100 µM

Question: And the TGI (UACC-257 melanoma)?
Answer: 27 µM

Question: And the TGI (DMS 114 small cell lung)?
Answer: 43 µM

Question: And the TGI (MOLT-4 leukemia)?
Answer: > 100 µM

Question: What about the TGI (SF-268 CNS) of the same compound?
Answer: 21.4 µM

Question: And the TGI (SF-539 CNS)?
Answer: 46.6 µM

Question: And the TGI (NCI-H226 lung)?
Answer: 40.6 µM

Question: And the TGI (RPMI-8226 leukemia)?
Answer: > 100 µM

Question: And the TGI (EKVX NSCLC)?
Answer: 31.1 µM

Question: What about the TGI (XF 498 CNS) of the same compound?
Answer: 27.1 µM

Question: What about the TGI (786-0 renal) of the same compound?
Answer: 24.2 µM

Question: And the TGI (HCC-2998 colon)?
Answer: 32.1 µM

Question: And the TGI (SK-MEL-2 melanoma)?
Answer: 29.2 µM

Question: And the TGI (HT29 colon)?
Answer: 37.3 µM

Question: What about the TGI (RXF 393 renal) of the same compound?
Answer: 29.9 µM

Question: What about the TGI (DLD-1 colon) of the same compound?
Answer: 80.7 µM

Question: And the TGI (NCI-H23 lung)?
Answer: 29.9 µM

Question: What about the TGI (OVCAR-4 ovarian) of the same compound?
Answer: 27.8 µM

Question: With NC(CCCC(N)P(=O)(O)O)C(=O)O (centres undefined) as the compound, how does the TGI (HOP-62 NSCLC) read?
Answer: > 100 µM

Question: What about the TGI (HOP-92 NSCLC) of the same compound?
Answer: > 100 µM

Question: And the TGI (A498 renal)?
Answer: > 100 µM

Question: What about the TGI (HL-60(TB) leukemia) of the same compound?
Answer: > 100 µM

Question: And the TGI (UACC-62 melanoma)?
Answer: > 100 µM

Question: What about the TGI (SK-OV-3 ovarian) of the same compound?
Answer: > 100 µM

Question: And the TGI (UO-31 renal)?
Answer: > 100 µM

Question: What about the TGI (CCRF-CEM leukemia) of the same compound?
Answer: > 100 µM

Question: And the TGI (KM12 colon)?
Answer: > 100 µM

Question: What about the TGI (IGROV1 ovarian) of the same compound?
Answer: > 100 µM

Question: What about the TGI (NCI-H460 lung) of the same compound?
Answer: > 100 µM

Question: And the TGI (SR leukemia)?
Answer: > 100 µM

Question: What about the TGI (ACHN renal) of the same compound?
Answer: > 100 µM

Question: And the TGI (OVCAR-8 ovarian)?
Answer: > 100 µM

Question: What about the TGI (HCT-116 colon) of the same compound?
Answer: > 100 µM

Question: And the TGI (TK-10 renal)?
Answer: > 100 µM

Question: And the TGI (SNB-78 CNS)?
Answer: > 100 µM

Question: And the TGI (U251 CNS)?
Answer: > 100 µM

Question: And the TGI (M19-MEL melanoma)?
Answer: > 100 µM

Question: What about the TGI (M14 melanoma) of the same compound?
Answer: > 100 µM

Question: And the TGI (DMS 273 small cell lung)?
Answer: > 100 µM

Question: What about the TGI (NCI-H522 lung) of the same compound?
Answer: > 100 µM

Question: And the TGI (KM20L2 colon)?
Answer: > 100 µM

Question: And the TGI (SF-295 CNS)?
Answer: > 100 µM

Question: And the TGI (UACC-257 melanoma)?
Answer: > 100 µM

Question: And the TGI (DMS 114 small cell lung)?
Answer: > 100 µM

Question: What about the TGI (MOLT-4 leukemia) of the same compound?
Answer: > 100 µM

Question: What about the TGI (SF-268 CNS) of the same compound?
Answer: > 100 µM

Question: What about the TGI (NCI-H226 lung) of the same compound?
Answer: > 100 µM

Question: And the TGI (EKVX NSCLC)?
Answer: > 100 µM

Question: What about the TGI (SNB-19 CNS) of the same compound?
Answer: > 100 µM

Question: And the TGI (HT29 colon)?
Answer: > 100 µM

Question: And the TGI (SK-MEL-28 melanoma)?
Answer: > 100 µM

Question: What about the TGI (RXF 393 renal) of the same compound?
Answer: > 100 µM

Question: What about the TGI (OVCAR-5 ovarian) of the same compound?
Answer: > 100 µM

Question: What about the TGI (NCI-H23 lung) of the same compound?
Answer: > 100 µM
